For two compounds, ΔTm results are on record in publication doi:10.1101/669069v1 (biorxiv, 2019).

Each structure is given as a SMILES string. Where only a bound is given, the exact number is not on record here.

The target of this test is T1, uMAT (MAT from U. urealiticum) (Ureaplasma urealyticum, UniProt A0ABM9XK24).
T1 sequence (A0ABM9XK24 1-376): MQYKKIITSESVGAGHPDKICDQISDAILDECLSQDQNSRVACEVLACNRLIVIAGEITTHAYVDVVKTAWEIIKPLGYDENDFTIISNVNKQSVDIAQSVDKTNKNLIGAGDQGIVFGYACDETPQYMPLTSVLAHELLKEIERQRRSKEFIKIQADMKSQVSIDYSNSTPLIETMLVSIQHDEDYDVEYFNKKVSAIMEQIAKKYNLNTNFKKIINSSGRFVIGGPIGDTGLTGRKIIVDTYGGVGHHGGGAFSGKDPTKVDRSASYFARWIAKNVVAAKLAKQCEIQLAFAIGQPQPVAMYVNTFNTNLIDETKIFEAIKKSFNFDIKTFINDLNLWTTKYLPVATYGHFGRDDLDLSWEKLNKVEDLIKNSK
The experiment in a line: thermal shift, SYPRO-orange. It is filed as binding. The note with it: read-out: dTm (first transition) at 1 mM.

Turning to `Nc1ncnc2c1ncn2[C@@H]1O[C@H](COP(=O)(O)OP(=O)(O)NP(=O)(O)O)[C@@H](O)[C@H]1O` [AMPPNP], the ΔTm at 1000 µM was about 2 °C. Consider `C[S+](CC[C@H](N)C(=O)O)C[C@H]1O[C@@H](n2cnc3c(N)ncnc32)[C@H](O)[C@@H]1O` (some centres unmarked) [SAM, S-adenosylmethionine], for which the ΔTm at 1000 µM was over 10 °C.
